In US4742049A, “Semisynthetic erythromycin antibiotics” (Abbott Laboratories, priority 1986, dated 1988):
Values after ≈ are worked out from the molar mass of the structure shown. Like-named read-outs stand apart in the source and are kept apart here.

Tests used:
[1] = system: Staph. aureus; experiment: antimicrobial spectrum, agar dilution MIC; format: cell-based; settings: Staphylococcus aureus, BHI agar, 20-24 hours
Method: (§1) Twelve petri dishes containing successive aqueous dilutions of the test compound mixed with 10 ml of sterilized Brain Heart Infusion agar (Difco 0418-01-5) are prepared. Each plate is inoculated with 1:100 (or 1:10 for slow-growing strains, primarily Micrococcus and Streptococcus) dilutions of up to 32 different microorganisms, using a Steers replicator block. The inoculated plates are incubated at 35°-37° C. for 20-24 hours. In addition, a control plate, using BHI agar containing no test compound, is prepared and incubated at the beginning and end of each test.
(§2) An additional plate containing a compound having known susceptibility patterns for the organisms being tested and belonging to the same antibiotic class as the test compound is also prepared and incubated as a further control, as well as to provide test-to-test comparability.
(§3) After incubation, each disk is read. The MIC is defined as the lowest concentration of drug yielding no growth, a slight haze, or sparsely isolated colonies on the inoculum spot as compared to the growth control.

[2] = system: Staph. epidermidis; experiment: antimicrobial spectrum, agar dilution MIC; format: cell-based; settings: Staphylococcus epidermidis, BHI agar, 20-24 hours
Method: as §1, §2, §3

[3] = system: Strep. faecium; experiment: antimicrobial spectrum, agar dilution MIC; format: cell-based; settings: Enterococcus faecium, BHI agar, 20-24 hours
Method: as §1, §2, §3

[4] = system: Strep. pyogenes; experiment: antimicrobial spectrum, agar dilution MIC; format: cell-based; settings: Streptococcus pyogenes, BHI agar, 20-24 hours
Method: as §1, §2, §3

[5] = system: E. coli; experiment: antimicrobial spectrum, agar dilution MIC; format: cell-based; settings: Escherichia coli, BHI agar, 20-24 hours
[6] = system: Providencia stuartii; experiment: antimicrobial spectrum, agar dilution MIC; format: cell-based; settings: strain CMX 640, BHI agar, 20-24 hours
Method: as §1, §2, §3

[7] = system: Pseudomonas aeruginosa; experiment: antimicrobial spectrum, agar dilution MIC; format: cell-based; settings: Pseudomonas aeruginosa, BHI agar, 20-24 hours
Method: as §1, §2, §3

[8] = system: Strep. agalactiae; experiment: antimicrobial spectrum, agar dilution MIC; format: cell-based; settings: Streptococcus agalactiae, strain CMX 508; BHI agar, 20-24 hours
Method: as §1, §2, §3

[9] = system: Strep. bovis; experiment: antimicrobial spectrum, agar dilution MIC; format: cell-based; settings: Streptococcus equinus, strain A5169; BHI agar, 20-24 hours
Method: as §1, §2, §3

[10] = system: Micrococcus luteus; experiment: antimicrobial spectrum, agar dilution MIC; format: cell-based; settings: 20-24 hours
[11] = system: Lactobacillus Casei; experiment: antimicrobial spectrum, agar dilution MIC; format: cell-based; settings: Lacticaseibacillus casei, ATCC7469, strain ATCC 7469; BHI agar, 20-24 hours
[12] = system: Ent. aerogenes; experiment: antimicrobial spectrum, agar dilution MIC; format: cell-based; settings: Klebsiella aerogenes, ATCC13048, strain ATCC 13048; BHI agar, 20-24 hours; read-out: MIC
[13] = system: Klebsiella pneumoniae; experiment: antimicrobial spectrum, agar dilution MIC; format: cell-based; settings: strain 8045, BHI agar, 20-24 hours
[14] = system: Pseudomonas cepacia; experiment: antimicrobial spectrum, agar dilution MIC; format: cell-based; settings: Burkholderia cepacia, strain 2961; BHI agar, 20-24 hours; read-out: MIC
Method: Erythromycin A was used for this purpose.
After incubation, each disk is read.

[15] = system: Acinetobacter SP; experiment: antimicrobial spectrum, agar dilution MIC; format: cell-based; settings: strain CMX 669, BHI agar, 20-24 hours
[16] = system: gut contractions (stomach, duodenum, jejunum); settings: dog, in vivo, iv, 4 mg/kg
Method: Compounds of this invention have been tested for gastrointestinal stimulating activity in a dog model at 4 mg/kg intravenously. Contractions in the gut were recorded with surgically implanted strain gauges. […] Ratios were calculated for the stomach, duodenum and jejunum, and a final arithmetic mean index was calculated and reported in Table 1.

Question: What does the source list for `CC[C@H]1OC(=O)[C@H](C)[C@@H](O[C@H]2C[C@@](C)(OC)[C@@H](O)[C@H](C)O2)[C@H](C)[C@@H](O[C@@H]2O[C@H](C)C[C@H](N(C)C)[C@H]2O)[C@](C)(OC)C[C@@H](C)C(=O)[C@H](C)[C@H]2N(CCCOCCOC)C(=O)O[C@]12C` [Example 1, 11-deoxy-6-O-methylerythromycin A-11,12-(N-methoxyethoxypropyl)cyclic carbamate]?
Answer: MIC ([1]; ATCC6538P, strain ATCC 6538P, read-out: MIC): 0.06 µg/mL (≈ 0.0675 µM); MIC ([1]; strain CMX 686B, read-out: MIC): 0.12 µg/mL (≈ 0.135 µM); MIC ([2]; strain 3519, read-out: MIC): 0.06 µg/mL (≈ 0.0675 µM); MIC ([3]; ATCC8043, strain ATCC 8043, read-out: MIC): 0.06 µg/mL (≈ 0.0675 µM); MIC ([4]; strain 930, read-out: MIC): 64 µg/mL (≈ 72 µM); MIC ([4]; strain EES61, read-out: MIC): 0.06 µg/mL (≈ 0.0675 µM); MIC ([5]; strain JUHL): 16 µg/mL (≈ 18 µM)

Question: `CC[C@H]1OC(=O)[C@H](C)[C@@H](O[C@H]2C[C@@](C)(OC)[C@@H](O)[C@H](C)O2)[C@H](C)[C@@H](O[C@@H]2O[C@H](C)C[C@H](N(C)C)[C@H]2O)[C@](C)(OC)C[C@@H](C)C(=O)[C@H](C)[C@H]2N(C3CC3)C(=O)O[C@]12C` [Example 5, 11-deoxy-6-O-methyl erythromycin A 11,12-(N-cyclopropyl)cyclic carbamate] was tested. Which MIC [6] did it give?
Answer: > 100 µg/mL

Question: And the MIC ([7]; strain 5007)?
Answer: > 100 µg/mL

Question: What about the MIC ([7]; strain BMH10) of the same compound?
Answer: 100 µg/mL (≈ 123 µM)

Question: What about the MIC ([7]; strain K799/61) of the same compound?
Answer: 6.2 µg/mL (≈ 7.63 µM)

Question: What about the MIC ([7]; strain K799/WT) of the same compound?
Answer: > 100 µg/mL

Question: What about the MIC ([1]; ATCC6538P, strain ATCC 6538P) of the same compound?
Answer: 0.39 µg/mL (≈ 0.48 µM)

Question: What about the MIC ([1]; strain 45) of the same compound?
Answer: 0.2 µg/mL (≈ 0.246 µM)

Question: What about the MIC ([1]; strain 45 RAR 2) of the same compound?
Answer: 0.39 µg/mL (≈ 0.48 µM)

Question: What about the MIC ([1]; strain A5177) of the same compound?
Answer: 1.56 µg/mL (≈ 1.92 µM)

Question: What about the MIC ([1]; strain CMX 686B) of the same compound?
Answer: 0.39 µg/mL (≈ 0.48 µM)

Question: What about the MIC ([2]; strain 3519) of the same compound?
Answer: 0.39 µg/mL (≈ 0.48 µM)

Question: And the MIC ([2]; strain 3519 RARI)?
Answer: 0.39 µg/mL (≈ 0.48 µM)

Question: What about the MIC [8] of the same compound?
Answer: 0.02 µg/mL (≈ 0.0246 µM)

Question: And the MIC [9]?
Answer: 0.02 µg/mL (≈ 0.0246 µM)

Question: What about the MIC ([3]; ATCC8043, strain ATCC 8043) of the same compound?
Answer: 0.1 µg/mL (≈ 0.123 µM)

Question: And the MIC ([4]; strain 930)?
Answer: > 100 µg/mL

Question: And the MIC ([4]; strain EES61)?
Answer: 0.02 µg/mL (≈ 0.0246 µM)

Question: What about the MIC ([5]; strain DC-2) of the same compound?
Answer: 100 µg/mL (≈ 123 µM)

Question: What about the MIC ([5]; strain H560) of the same compound?
Answer: 25 µg/mL (≈ 30.7 µM)

Question: What about the MIC ([5]; strain JUHL) of the same compound?
Answer: 50 µg/mL (≈ 61.5 µM)

Question: What about the MIC ([5]; strain KNK 437) of the same compound?
Answer: 100 µg/mL (≈ 123 µM)

Question: And the MIC ([5]; strain SS)?
Answer: 0.2 µg/mL (≈ 0.246 µM)

Question: What about the MIC ([10]; strain 4698, BHI agar) of the same compound?
Answer: 0.2 µg/mL (≈ 0.246 µM)

Question: What about the MIC ([10]; strain 9341, BHI agar) of the same compound?
Answer: 0.05 µg/mL (≈ 0.0615 µM)

Question: What about the MIC [11] of the same compound?
Answer: 0.05 µg/mL (≈ 0.0615 µM)

Question: What about the MIC [12] of the same compound?
Answer: 100 µg/mL (≈ 123 µM)

Question: And the MIC [13]?
Answer: 100 µg/mL (≈ 123 µM)

Question: What about the MIC [14] of the same compound?
Answer: > 100 µg/mL

Question: What about the MIC [15] of the same compound?
Answer: 25 µg/mL (≈ 30.7 µM)

Question: Which “Gastrointestinal Motility Index” value [16] does the source give for `CC[C@H]1OC(=O)[C@H](C)[C@@H](O[C@H]2C[C@@](C)(OC)[C@@H](O)[C@H](C)O2)[C@H](C)[C@@H](O[C@@H]2O[C@H](C)C[C@H](N(C)C)[C@H]2O)[C@](C)(O)C[C@@H](C)C(=O)[C@H](C)[C@H]2N(C)C(=O)O[C@]12C` [Example 19, 11-deoxyerythromycin A 11,12-(N-methyl)cyclic carbamate] here?
Answer: 5.83
